Test results from patent US12472224B2, “Ready-to-use bivalirudin compositions” (MAIA Pharmaceuticals, Inc., priority 2019, dated 2025).

How the values were obtained:
[1] = Toxicokinetics of bivalirudin in satellite animals of the rat study (plasma concentrations); settings: both sexes, Sprague-Dawley, in vivo, iv, 24 hours after termination of dosing, 7 out of 23 samples, all others below 50 ng/mL, read-out: plasma bivalirudin concentration at the 24-hour timepoint
Experimental: The infusion rate was 2.5 mL/kg/h for all groups. A separate set of satellite animals (6/sex/group) were administered the same set of materials and used for evaluating the toxicokinetics (TK) of bivalirudin at 5 minutes and 24 hours after termination of dosing (3 animals/sex/group/timepoint). See Table 16b for group allocation. All animals were sacrificed on Day 16, one day following the end of the 14-day infusion.
Mean plasma concentrations of bivalirudin at C5 were similar in males treated with the high-dose (250 mg/kg/day) of MAIA Bivalirudin Injection or Sandoz Bivalirudin, and only slightly lower (approximately 20% lower) in the female treated with MAIA Bivalirudin than in the females treated with Sandoz Bivalirudin. However, it must be noted that data are available from just one female for the MAIA product, due to premature deaths or inability to collect blood.

[2] = tested on: Whole human blood; test: Hemolysis study; format: cell-based
Experimental: Briefly, human whole blood was collected from a single donor (K2EDTA anticoagulant). The donor blood was analyzed for hemoglobin content in triplicate using an Advia 120 hematology analyzer. The dynamic mixing of drug infusate in human whole blood was simulated in this in vitro study by incubating the diluted test, reference and placebo items at a blood:formulation ratio of 1:0.75, corresponding to a final bivalirudin concentration of 2.14 mg/mL. Blood was mixed with either bivalirudin for injection as described herein, Angiomax®, a bivalirudin placebo, or 0.9% saline. The mixture as incubated at 37° C. (±5° C.) for 30 minutes. Negative controls containing only blood (whole blood control) or blood mixed with 0.9% saline at a blood:saline ratio of 1:0.75 (0.9% NaCl control) were also prepared. A positive control containing blood mixed 1:1 with 1% saponin was also prepared. All control tubes were incubated at 37° C. (±5° C.) for 30 minutes. […] During the incubation tubes containing the test and reference item mixed with saline were prepared to check if the test or reference item interfered with the absorbance readings. […] The percent hemolysis of each sample was calculated based on the hemoglobin content of the supernatant, expressed as a percentage of hemoglobin content of the donor sample, after correcting for dilution and interference from the sample, if any.

Molecule	level at 24 h [1] [ng/mL]	% Hemolysis [2] [%]	% hemolysis (positive control) [2] [%]
CC[C@H](C)[C@H](NC(=O)[C@H](CCC(=O)O)NC(=O)[C@H](CCC(=O)O)NC(=O)[C@H](Cc1ccccc1)NC(=O)[C@H](CC(=O)O)NC(=O)CNC(=O)[C@H](CC(N)=O)NC(=O)CNC(=O)CNC(=O)CNC(=O)CNC(=O)[C@@H]1CCCN1C(=O)[C@H](CCCNC(=N)N)NC(=O)[C@@H]1CCCN1C(=O)[C@H](N)Cc1ccccc1)C(=O)N1CCC[C@H]1C(=O)N[C@@H](CCC(=O)O)C(=O)N[C@@H](CCC(=O)O)C(=O)N[C@@H](Cc1ccc(O)cc1)C(=O)N[C@@H](CC(C)C)C(=O)O [bivalirudin]	50.5 to 159		
saponin		100.0 ± 0.8	100
